Laboratory results published in patent US20160376286A1, “Pyrimidin-4-one derivatives and their use in the tratement, amelioration or prevention of a viral disease” (priority 2011, published 2016).

test system: influenza A virus A/Aichi/2/68 (H3N2); experiment: Cytopathic effect (CPE) assay H3N2 in MDCK cells; assay type: cell-based, influenza A virus (A/Aichi/2/68 (H3N2)); MDCK cells; conditions: Influenza A virus, H3N2, MDCK, read-out: CPE H3N2 IC50 [μM]
Method: A possible measure of the […] antiviral activity of the compounds having the formula I or II is the CPE assay disclosed herein. […] In this connection, the reduction in the virus-mediated cytopathic effect (CPE) upon treatment with the compounds was calculated as follows: The cell viability of infected-treated and uninfected-treated cells was determined using an ATP-based cell viability assay (Promega). The response in relative luminescent units (RLU) of infected-untreated samples was subtracted from the response (RLU) of the infected-treated samples and then normalized to the viability of the corresponding uninfected sample resulting in % CPE reduction.
The influenza A virus (IAV) was obtained from American Tissue Culture Collection (A/Aichi/2/68 (H3N2); VR-547). Virus stocks were prepared by propagation of virus on Mardin-Darby canine kidney (MDCK; ATCC CCL-34) cells and infectious titres of virus stocks were determined by the 50% tissue culture infective dose (TCID50) analysis as described in Reed, L. J., and H. Muench. 1938, Am. J. Hyg. 27:493-497.
MDCK cells were seeded in 96-well plates at 2×10^4 cells/well using DMEM/Ham's F-12 (1:1) medium containing 10% foetal bovine serum (FBS), 2 mM L-glutamine and 1% antibiotics (all from PAA). Until infection the cells were incubated for 5 hrs at 37° C., 5.0% CO2 to form a -80% confluent monolayer on the bottom of the well. Each test compound was dissolved in DMSO and generally tested at 25 μM and 250 μM. In those cases where the compounds were not soluble at that concentration they were tested at the highest soluble concentration. The compounds were diluted in infection medium (DMEM/Ham's F-12 (1:1) containing 5 μg/ml trypsin, and 1% antibiotics) for a final plate well DMSO concentration of 1%. The virus stock was diluted in infection medium (DMEM/Ham's F-12 (1:1) containing 5 μg/m1Trypsin, 1% DMSO, and 1% antibiotics) to a theoretical multiplicity of infection (M01) of 0.05.
After removal of the culture medium and one washing step with PBS, virus and compound were added together to the cells. In the wells used for cytotoxicity determination (i.e. in the absence of viral infection), no virus suspension was added. Instead, infection medium was added. Each treatment was conducted in two replicates. After incubation at 37° C., 5% CO2 for 48 hrs, each well was observed microscopically for apparent cytotoxicity, precipitate formation, or other notable abnormalities. Then, cell viability was determined using
CellTiter-Glo luminescent cell viability assay (Promega). The supernatant was removed carefully and 65 μl of the reconstituted reagent were added to each well and incubated with gentle shaking for 15 min at room temperature. Then, 60 μl of the solution was transferred to an opaque plate and luminescence (RLU) was measured using Synergy HT plate reader (Biotek).
Relative cell viability values of uninfected-treated versus uninfected-untreated cells were used to evaluate cytotoxicity of the compounds. Substances with a relative viability below 80% at the tested concentration were regarded as cytotoxic and retested at lower concentrations.
Reduction in the virus-mediated cytopathic effect (CPE) upon treatment with the compounds was calculated as follows: The response (RLU) of infected-untreated samples was subtracted from the response (RLU) of the infected-treated samples and then normalized to the viability of the corresponding uninfected sample resulting in % CPE reduction.

Compound | IC50 [µM]
Cc1c(-c2ccc(F)nc2F)sc2nc(N)[nH]c(=O)c12 [SAV-7621] | 70

same assay, conditions: Influenza A virus, H3N2, MDCK, read-out: CPE H3N2 reduction (%)

Compound | inhibition at 50 µM [%]
O=C(NO)c1cc(NS(=O)(=O)Cc2cccc(Cl)c2)ccn1 | 60.1

same assay, conditions: Influenza A virus, H3N2, MDCK; activity conc 50 (μM); read-out: CPE H3N2 reduction (%)

Compound | inhibition at 50 µM [%]
O=C(NO)c1cc(NS(=O)(=O)Cc2cccc(C(F)(F)F)c2)ccn1 | -5.8
O=C(NO)c1cc(NS(=O)(=O)Cc2ccccc2Cl)ccn1 | -1.5
O=C(NO)c1cc(NS(=O)(=O)Cc2cccc(Br)c2)ccn1 | 2.29

same assay, conditions: activity conc 1

Compound | CPE H3N2 reduction (%)
O=C(c1cc(C2=CCCCC2)ccn1)N(O)Cc1ccccc1 | 3.4
O=C(c1cc(-c2ccccc2)ccn1)N(O)Cc1ccc(F)cc1 | −3.2
CCONC(=O)c1cc(NCc2cccc(OCc3ccccc3)c2)ccn1.Cl | 1.2

same assay, conditions: activity conc 2

Compound | CPE H3N2 reduction (%)
CC(C)c1cccc(-c2ccc(C(=O)NO)nc2)c1 | −2.1%
Cc1c(-c2ccccc2F)sc2nc(N)[nH]c(=O)c12 [SAV-7598] | 21.3 3.7 11.4%
O=C(c1cc(-c2ccc(Cl)cc2)ccn1)N(O)Cc1ccccc1 | −6.7%
Cc1c(-c2cc(C#N)ccc2Cl)sc2nc(N)[nH]c(=O)c12 [SAV-7617] | 2 5.1%
Cc1c(-c2ccc(F)cc2F)sc2nc(N)[nH]c(=O)c12 [SAV-7610] | −1.6%

same assay, conditions: activity conc 5

Compound | CPE H3N2 reduction (%)
CC(C)(C)OC(=O)N1CC=C(c2ccnc(C(=O)N(O)Cc3ccccc3)c2)CC1 | 1.2
O=C(NO)c1cc(-c2ccc(Cl)cc2)ccn1 | 26.6
CN(C)S(=O)(=O)c1cccc(-c2ccnc(C(=O)N(O)Cc3ccccc3)c2)c1 | −1.8
Cc1c(-c2c(F)ccc(Cl)c2F)sc2nc(N)[nH]c(=O)c12 [SAV-7637] | 1.5
Cc1c(-c2ccc(Cl)c(C(F)(F)F)c2)sc2nc(N)[nH]c(=O)c12 [SAV-7623] | 1.9
CNC(=O)c1cccc(-c2ccnc(C(=O)N(O)Cc3ccccc3)c2)c1 | −7.5
O=C(NOCc1ccccc1)c1cc2ccccc2cn1 | −1.5
O=C(c1cc(-c2cccc(CO)c2)ccn1)N(O)Cc1ccccc1 | 7.7
Cc1c(-c2ccccc2)sc2nc(NC3CCCCC3)[nH]c(=O)c12 [SAV-7640] | −3.2
CC(C)(C)OC(=O)N1CCC=C(c2ccnc(C(=O)N(O)Cc3ccccc3)c2)C1 | 10.2
NC(=O)c1cccc(-c2ccnc(C(=O)N(O)Cc3ccccc3)c2)c1 | −2.7
O=C(c1ccc(N2CCCC2)cn1)N(Cc1ccccc1)OCc1ccccc1 | −2.7
Cc1c(-c2ccccc2)sc2nc(Nc3ccccc3)[nH]c(=O)c12 [SAV-7638] | 8.7

same assay, conditions: activity conc 10

Compound | CPE H3N2 reduction (%)
Nc1nc2sc(Cc3ccccc3)cc2c(=O)[nH]1 [SAV-7517] | 39.3 13 −2.64%
Cc1c(-c2cccc(Cl)c2F)sc2nc(N)[nH]c(=O)c12 [SAV-7616] | 68.7%
Cc1cccc(-c2ccc(C(=O)N(O)Cc3ccccc3)nc2)c1 | 15.5%

same assay, conditions: activity conc 12

Compound | CPE H3N2 reduction (%)
O=C(c1ccc(-c2ccccc2)cn1)N(O)Cc1ccccc1 | 13.4
O=C(NO)c1ccc(-c2ccccc2)cn1 | 21.7

same assay, conditions: activity conc 15

Compound | CPE H3N2 reduction (%)
Cc1c(-c2ccncc2)sc2nc(N)[nH]c(=O)c12 [SAV-7586] | 81.2

same assay, conditions: activity conc 20

Compound | CPE H3N2 reduction (%)
O=C(c1cc2ccccc2cn1)N(O)CCc1ccccc1 | −1.8%
Cc1c(-c2ccc(Cl)cc2)sc2nc(N)[nH]c(=O)c12 [SAV-7579] | 21.4 11.3 0.27%
COc1ccc(-c2sc3nc(N)[nH]c(=O)c3c2C)cc1 [SAV-7575] | 35.9 9.02 4%
O=C(NOCc1ccccc1)c1ccc(N2CCCC2)cn1 | −8.7%
CC(c1ccccc1)c1cc2c(=O)[nH]c(N)nc2s1 (centres unmarked) [SAV-7604] | −4.7 6.4%

same assay, conditions: activity conc 25

Compound | CPE H3N2 reduction (%)
Cc1c(-c2ccc(F)nc2F)sc2nc(N)[nH]c(=O)c12 [SAV-7621] | 14.3%
Cc1c(-c2ccc(Cl)c(C(=O)N(C)C)c2)sc2nc(N)[nH]c(=O)c12 [SAV-7626] | 6.4 −4.6%

same assay, conditions: activity conc 50 (μM)

Compound | CPE H3N2 reduction (%)
Cc1c(-c2ccccc2)sc2nc(NCCCO)[nH]c(=O)c12 [SAV-7582] | 102.9 4.2 53.1%
O=C(c1cc2ccccc2cn1)N(O)Cc1ccccc1 | 34.2%
Cc1cccc(C(=O)NOCc2ccccc2)n1 | −2.7%
CC1(C)C=C(c2ccnc(C(=O)N(O)Cc3ccccc3)c2)CC(C)(C)N1 | 2.8%
NC1CCN(c2ccnc(C(=O)N(O)Cc3ccccc3)c2)CC1 | 3.2%
O=C(NO)c1ccccn1 | 3.15%
O=C(c1cc(NS(=O)(=O)c2ccccc2)ccn1)N(O)Cc1ccccc1 | −5.2%
Cl.O=C(c1cc(N2CCC(F)(F)CC2)ccn1)N(O)Cc1ccccc1 | −3.2%
O=C(c1cc(N2CCC(N3CCCC3)CC2)ccn1)N(O)Cc1ccccc1 | 10.7%
O=C(c1cc(C2CCCNC2)ccn1)N(O)Cc1ccccc1 (centres unmarked) | 6.1%
Cc1c(-c2cccnc2)sc2nc(N)[nH]c(=O)c12 [SAV-7589] | 63.1%
Cc1cccc(C(=O)N(C)OCc2ccccc2)n1 | −2.3%
CC(C)(C)OC(=O)N1CCN(c2ccnc(C(=O)N(O)Cc3ccccc3)c2)CC1 | 34%
CC(C)(C)OC(=O)NC1CCN(c2ccnc(C(=O)N(O)Cc3ccccc3)c2)CC1 | 8.3%
Cl.O=C(c1cc(NS(=O)(=O)Cc2ccc(F)cc2)ccn1)N(O)Cc1ccccc1 | −1.1%
Cc1cc(-c2sc3nc(N)[nH]c(=O)c3c2C)ccc1Cl [SAV-7620] | 57.8%
Cl.O=C(c1cc(NS(=O)(=O)Cc2cccc(C(F)(F)F)c2)ccn1)N(O)Cc1ccccc1 | 22.4%
O=C(c1cc(C2=CCC3(CC2)OCCO3)ccn1)N(O)Cc1ccccc1 | 5.4%
O=C(c1cc(N2CCCC(F)(F)C2)ccn1)N(O)Cc1ccccc1 | 8.9%

Compound | CPE H3N2 reduction (%)
Cc1c(-c2cccc(C(F)(F)F)c2)sc2nc(N)[nH]c(=O)c12 [SAV-7581] | 87.8%
O=C(NO)c1cc(NS(=O)(=O)Cc2ccccc2)ccn1 [drawing 243] | 5.1%
CCON(C)C(=O)c1cccc(C)n1 | −1.9%
Nc1nc2sc(-c3ccccc3)cc2c(=O)[nH]1 [SAV-7549] | 65.5 −2.4 8.8%
CCONC(=O)c1cc(NCC2CCN(Cc3ccccc3)CC2)ccn1.Cl.Cl | 14.8%
Cl.O=C(c1cc(NS(=O)(=O)Cc2cccc(Cl)c2)ccn1)N(O)Cc1ccccc1 | 9.5%
Cc1c(-c2ccc(Cl)cc2F)sc2nc(N)[nH]c(=O)c12 [SAV-7618] | 77.4%
CCONC(=O)c1cc(N)ccn1.Cl | 10.5%
CN(O)C(=O)c1cc(N2CCOCC2)ccn1 | 5.7%
CN(C)C1CCN(c2ccnc(C(=O)N(O)Cc3ccccc3)c2)CC1 | 12.3%
CN1CC=C(c2ccnc(C(=O)N(O)Cc3ccccc3)c2)CC1 | 10.6%
CN1CCN(c2ccnc(C(=O)N(O)Cc3ccccc3)c2)CC1 | 2.4%
Cc1c(C2=CCNCC2)sc2nc(N)[nH]c(=O)c12 [SAV-7614] | 190 10.6%
Cc1c(-c2ccc(F)c(C#N)c2F)sc2nc(N)[nH]c(=O)c12 [SAV-7628] | 84.3%
CON(C)C(=O)c1ccc2ccccc2n1 | −1.2%
O=C(NOC(=O)c1cc(N2CCCCC2)ccn1)c1cc(N2CCCCC2)ccn1 | 29%
N/C(=N\O)c1ccc(C(=O)NO)nc1 | −4.8%
O=C(c1cc(C2=CC3CCC(C2)N3)ccn1)N(O)Cc1ccccc1 (centres unmarked) | 5.49%
Cl.O=C(NO)c1cc(NS(=O)(=O)Cc2cccc3cccnc23)ccn1 | 24.39%
